Data taken from the supplement of paper PMC11451515.

Test system: SEM cells
Test: cell viability relative to DMSO control; higher = less cytotoxic
Conditions: 48 h
Summary of the method: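 In 1536-well plates, 5 μl of leukemia cells were seeded per well: 500 cells/well for NOMO1 or SEM and 1000 cells/well for P12-Ichikawa. Each line had first been adapted for at least four passages in each medium. Library compounds in DMSO were pin-dosed at 11 threefold concentrations between 47 μM and 0.79 nM, and CellTiter-Glo One luminescence was read after 48 h at 37°C. Viability is a per-plate percentage relative to DMSO wells, with cell-free wells as background.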

[1] = HPLM + 10% dialyzed FBS, 0.000781 µM
[2] = HPLM + 10% dialyzed FBS, 0.00234 µM
[3] = HPLM + 10% dialyzed FBS, 0.00702 µM
[4] = HPLM + 10% dialyzed FBS, 0.0211 µM
[5] = HPLM + 10% dialyzed FBS, 0.0632 µM
[6] = HPLM + 10% dialyzed FBS, 0.19 µM
[7] = HPLM + 10% dialyzed FBS, 0.569 µM
[8] = HPLM + 10% dialyzed FBS, 1.71 µM
[9] = HPLM + 10% dialyzed FBS, 5.12 µM
[10] = HPLM + 10% dialyzed FBS, 15.4 µM
[11] = HPLM + 10% dialyzed FBS, 46.1 µM
[12] = RPMI 5 mM glucose + 10% FBS, 0.000781 µM
[13] = RPMI 5 mM glucose + 10% FBS, 0.00234 µM
[14] = RPMI 5 mM glucose + 10% FBS, 0.00702 µM
[15] = RPMI 5 mM glucose + 10% FBS, 0.0211 µM
[16] = RPMI 5 mM glucose + 10% FBS, 0.0632 µM
[17] = RPMI 5 mM glucose + 10% FBS, 0.19 µM
[18] = RPMI 5 mM glucose + 10% FBS, 0.569 µM
[19] = RPMI 5 mM glucose + 10% FBS, 1.71 µM
[20] = RPMI 5 mM glucose + 10% FBS, 5.12 µM
[21] = RPMI 5 mM glucose + 10% FBS, 15.4 µM
[22] = RPMI 5 mM glucose + 10% FBS, 46.1 µM
[23] = RPMI 5 mM glucose + 10% dialyzed FBS, 0.000781 µM
[24] = RPMI 5 mM glucose + 10% dialyzed FBS, 0.00234 µM
[25] = RPMI 5 mM glucose + 10% dialyzed FBS, 0.00702 µM
[26] = RPMI 5 mM glucose + 10% dialyzed FBS, 0.0211 µM
[27] = RPMI 5 mM glucose + 10% dialyzed FBS, 0.0632 µM
[28] = RPMI 5 mM glucose + 10% dialyzed FBS, 0.19 µM
[29] = RPMI 5 mM glucose + 10% dialyzed FBS, 0.569 µM
[30] = RPMI 5 mM glucose + 10% dialyzed FBS, 1.71 µM
[31] = RPMI 5 mM glucose + 10% dialyzed FBS, 5.12 µM
[32] = RPMI 5 mM glucose + 10% dialyzed FBS, 15.4 µM
[33] = RPMI 5 mM glucose + 10% dialyzed FBS, 46.1 µM

SMILES	cell viability [1]	cell viability [2]	cell viability [3]	cell viability [4]	cell viability [5]	cell viability [6]	cell viability [7]	cell viability [8]	cell viability [9]	cell viability [10]	cell viability [11]	cell viability [12]	cell viability [13]	cell viability [14]	cell viability [15]	cell viability [16]	cell viability [17]	cell viability [18]	cell viability [19]	cell viability [20]	cell viability [21]	cell viability [22]	cell viability [23]	cell viability [24]	cell viability [25]	cell viability [26]	cell viability [27]	cell viability [28]	cell viability [29]	cell viability [30]	cell viability [31]	cell viability [32]	cell viability [33]
COc1ccc(C(=O)c2c(C)n(CCN3CCOCC3)c3ccccc23)cc1	83.5%	93.6%	93.3%	102%	99.8%	105%	84.3%	108%	104%	108%	103%	74.4%	89%	88.5%	88.3%	91.5%	93.2%	77.9%	85.2%	87.5%	72.8%	66.5%	95.6%	88.3%	97.9%	93.5%	97.2%	97.4%	96.1%	83.8%	102%	92.1%	87.8%
C[C@@H](NCCCc1cccc(C(F)(F)F)c1)c1cccc2ccccc12	121%	119%	116%	117%	118%	111%	120%	122%	113%	106%	105%	112%	124%	119%	131%	107%	113%	116%	114%	96.5%	94.3%	111%											
CC(C)(S)[C@@H](N)C(=O)O	75.7%	94.7%	96%	109%	72.8%	108%	90.5%	110%	97.3%	104%	20%	75%	94.5%	100%	100%	64.8%	110%	110%	107%	113%	107%	13.3%	91.1%	99.8%	105%	99.4%	84.9%	103%	104%	107%	122%	116%	16.1%
NC(=O)[C@H]1CCS[C@@H]2C[C@]3(CCCN3C(=O)Cc3ccc(NC(=O)COc4ccc(Cl)cc4Cl)cc3)C(=O)N12	96.1%	101%	94%	107%	104%	103%	97.7%	61.4%	38%	28.2%	31.5%	105%	106%	112%	107%	121%	103%	85.7%	18.4%	16.2%	19.6%	10.2%	115%	102%	123%	120%	113%	114%	117%	66.6%	35.1%	20.8%	19.9%
